From patent US7022725B2, “Isoxazole derivatives” (Takeda Pharmaceutical Company Limited, priority 2000, dated 2006)

Compound	melting point [°C]
O=C(O)CCc1c(-c2ccccc2)noc1-c1ccccc1 [Example 146, 3-[3,5-diphenyl-4-isoxazolyl]propionic acid]	152 to 153
O=C(O)CCc1conc1-c1ccc(-c2ccccc2)cc1 [Example 57, 3-[3-(4-phenylphenyl)-4-isoxazolyl]propionic acid]	169 to 170
CS(=O)(=O)c1ccc(-c2oncc2CCCO)cc1 [Example 106, 3-[5-(4-methylsulfonylphenyl)-4-isoxazolyl]propan-1-ol]	125 to 126
Cc1noc(-c2ccccc2)c1/C=C/C(=O)O [Example 136, (E)-3-(3-methyl-5-phenyl-4-isoxazolyl)propenoic acid]	173 to 174
CSc1ccc(-c2oncc2CCCO)cc1 [Example 105, 3-[5-(4-methylthiophenyl)-4-isoxazolyl]propan-1-ol]	54 to 55
O=C(O)CCc1conc1-c1ccc(C(F)(F)F)cc1 [Example 140, 3-[3-(4-trifluoromethylphenyl)-4-isoxazolyl]propionic acid]	173 to 174
CCOP(=O)(O)Cc1ccc(NC(=O)CCc2cnoc2-c2ccccc2)cc1	80 to 82
Cc1onc(-c2ccc(C(F)(F)F)cc2)c1CCC(=O)O [Example 144, 3-[5-methyl-3-(4-trifluoromethylphenyl)-4-isoxazolyl]propionic acid]	138 to 139
NC(=O)/C=C/c1cnoc1-c1ccccc1 [Example 25, (E)-3-(5-phenyl-4-isoxazolyl)propenamide]	194 to 196

Other lines, results leading:

melting point [°C]	Compound
101 to 102	COc1ccc(-c2oncc2CCC(=O)O)cc1 [Example 13, 3-[5-(4-methoxyphenyl)-4-isoxazolyl]propionic acid]
150 to 151	O=C(O)CCc1cnoc1-c1ccc2c(c1)OCO2 [Example 89, 3-[5-(1,3-benzodioxol-5-yl)-4-isoxazolyl]propionic acid]
164 to 165	CCc1onc(-c2ccc(Cl)cc2)c1CCC(=O)O [Example 142, 3-[3-(4-chlorophenyl)-5-ethyl-4-isoxazolyl]propionic acid]
158 to 159	NC(=O)CCc1conc1-c1ccc(Cl)cc1 [Example 18, 3-[3-(4-chlorophenyl)-4-isoxazolyl]propionamide]
68 to 69	COC(=O)CCc1cnoc1-c1ccc(C(F)(F)F)cc1 [Example 60, methyl 3-[5-(4-trifluoromethylphenyl)-4-isoxazolyl]propionate]
177 to 180	O=C(O)CCc1cnoc1-c1ccc(Cl)c(Br)c1 [Example 6, 3-[5-(3-bromo-4-chlorophenyl)-4-isoxazolyl]propionic acid]
106 to 107	O=C(O)CCc1cnoc1-c1ccc(Cl)cc1Cl [Example 69, 3-[5-(2,4-dichlorophenyl)-4-isoxazolyl]propionic acid]
171 to 172	O=C(O)CCc1cnoc1-c1ccc(C(F)(F)F)cc1 [Example 10, 3-[5-(4-trifluoromethylphenyl)-4-isoxazolyl]propionic acid]
183 to 184	O=C(O)CCc1c(-c2ccccc2)noc1O [Example 143, 3-[5-hydroxy-3-phenyl-4-isoxazolyl]propionic acid]
136 to 137	O=C(O)CCc1cnoc1-c1ccc(F)c(Br)c1 [Example 128, 3-[5-(3-bromo-4-fluorophenyl)-4-isoxazolyl]propionic acid]
169 to 170	COc1ccc(-c2oncc2CCC(=O)O)cc1OC [Example 100, 3-[5-(3,4-dimethoxyphenyl)-4-isoxazolyl]propionic acid]
90 to 91	O=C(O)CCc1cnoc1-c1ccccc1 [Example 7, 3-(5-phenyl-4-isoxazolyl)propionic acid]
50 to 51	Cc1cc(-c2oncc2CCCO)ccc1Cl [Example 97, 3-[5-(4-chloro-3-methylphenyl)-4-isoxazolyl]propan-1-ol]
